From patent US10287328B2, “Treatment of diabetes, toll-like receptor 4 modulators and methods for using the same” (KeMyth Biotech Co., Ltd., priority 2016, dated 2019)

Assays:
[1] = Serum insulin level (sandwich ELISA) in HFD-induced, STZ-injected type 2 diabetic rats; assay type: in vivo, Sprague-Dawley rats; conditions: STZ-injected HFD-fed rats, 2 mg/kg/3 days i.p. for 30 days, compared to STZ+vehicle
Method: The Sprague-Dawley rats were allocated to two dietary regimens by feeding either normal or HFD ad libitum, for the initial period of 2 weeks. After 2 weeks of dietary manipulation, the group of rats fed HFD were injected intraperitoneally (i.p.) with a low dose of STZ (35 mg/kg b.w.), while the respective control rats were given vehicle citrate buffer (pH 4.5) in a dose volume of 1 mL/kg, i.p. Seven days after STZ injection, rats were screened for blood glucose levels. Overnight fasted (10-12 hours) animals were given glucose (3 g/kg b.w.) by gastric intubation. After 2 hours of oral administration, blood samples were taken from lateral tail vein, left to coagulate and centrifuged; then serum glucose concentration was measured. Rats having serum glucose ≥200 mg/dL after 2 hours of glucose intake were considered diabetic and selected for further pharmacological studies. The rats were allowed to continue to feed on their respective diets until the end of the study (16). […]
The levels of insulin, sICAM-1, sVCAM-1, and E-selectin in serum were determined by using sandwich ELISA (R&D) according to manufacturer's protocols.

[2] = Blood glucose level in C57BL/KsJ-db/db diabetic mice; assay type: in vivo; conditions: 2 mg/kg/3 days i.p. for 30 days, compared with control group, after week 2
Method: Male C57BL/KsJ-db/db mice (diabetic deficiency knockout mice) at 5 weeks of age (23 g) were fed a pelletized commercial chow diet for acclimation from the arrival for 2 weeks. […]. They were given free access to food and distilled water, and the food consumption and body weight gain were measured daily and weekly, respectively. […]; and (2) group 2 served as diabetic mice administered C70PLY4 (2 mg/kg/3 days) in aqueous suspension i.p. for 30 days (C70PLY4). […] The blood was centrifuged at 1000 g for 15 min at 4° C., and plasma and erythrocyte were separated. The livers and adipose tissues were removed, washed, weighted, and frozen at −70° C. until analyzed.
Blood Glucose Test Strips and Blood Glucose Monitoring System were used to determine whole blood glucose levels on a drop of tail blood collected between 10 am and midday. Glucose concentration was determined colorimetrically using a glucose oxidase/peroxidase reagent kit. Samples were incubated with 100 μl of assay reagent at 37° C. for 30 min and measured at 540 nm. Values were expressed in mg/dL.

HUVEC = conditions: treated for 1, 4 and 7 hours (FIG. 16)

QDLTAHFTTSIPLKGNVRNLSVKIRECTGLAWEWWRTVYEKTDLPLVRKRTISIWGTTLYPQVEDKVEND [C70PLY4]
blood insulin levels [1]: increased blood insulin levels
blood glucose level [2]: significantly decreases
cell morphology of HUVEC (HUVEC): did not affect the cell morphology
